In ChEMBL document CHEMBL1201861, “Genomics of Drug Sensitity in Cancer screening data, Wellcome Trust Sanger Institute”:

What was measured:
Assay in all cases: cells
Format in all cases: functional, cell-based
Conditions in all cases: Homo sapiens
[1] = tested on: ES5;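 further: growth inhibition of human ES5 cells, read out by a cell viability assay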
Description: SANGER: Inhibition of human ES5 cell growth in a cell viability assay.

[2] = tested on: LS-513
Description: SANGER: Inhibition of human LS-513 cell growth in a cell viability assay.

[3] = tested on: MC116;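 further: growth inhibition of MC116 cells, read out with a cell viability assay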
Description: SANGER: Inhibition of human MC116 cell growth in a cell viability assay.

[4] = tested on: HC-1;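 further: growth inhibition of HC-1 cells measured by a cell viability assay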
Description: SANGER: Inhibition of human HC-1 cell growth in a cell viability assay.

[5] = tested on: RH-1;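 further: growth inhibition of human RH-1 cells, read out with a cell viability assay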
Description: SANGER: Inhibition of human RH-1 cell growth in a cell viability assay.

[6] = tested on: NOMO-1;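 further: growth inhibition of human NOMO-1 cells measured by a cell viability assay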
Description: SANGER: Inhibition of human NOMO-1 cell growth in a cell viability assay.

[7] = tested on: MZ7-mel;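 further: growth inhibition of human MZ7-mel cells, measured by a cell viability assay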
Description: SANGER: Inhibition of human MZ7-mel cell growth in a cell viability assay.

[8] = tested on: SW684;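 further: growth inhibition of human SW684 cells, measured by a cell viability assay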
Description: SANGER: Inhibition of human SW684 cell growth in a cell viability assay.

[9] = tested on: EW-24;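 further: human EW-24 cancer cell line, growth inhibition read out via a cell viability assay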
Description: SANGER: Inhibition of human EW-24 cell growth in a cell viability assay.

[10] = tested on: MZ2-MEL;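 further: growth inhibition of MZ2-MEL cells read out with a cell viability assay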
Description: SANGER: Inhibition of human MZ2-MEL cell growth in a cell viability assay.

[11] = tested on: SW872;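 further: growth inhibition of SW872 cells, read out by a viability assay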
Description: SANGER: Inhibition of human SW872 cell growth in a cell viability assay.

[12] = tested on: D283 Med
Description: SANGER: Inhibition of human D-283MED cell growth in a cell viability assay.

[13] = tested on: RKO;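 further: growth inhibition of human RKO cells, read out with a cell viability assay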
Description: SANGER: Inhibition of human RKO cell growth in a cell viability assay.

[14] = tested on: DJM-1;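 further: growth inhibition of human DJM-1 cells, read out by a cell viability assay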
Description: SANGER: Inhibition of human DJM-1 cell growth in a cell viability assay.

[15] = tested on: TE-12;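 further: growth inhibition of TE-12 cells, read out by a cell viability assay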
Description: SANGER: Inhibition of human TE-12 cell growth in a cell viability assay.

[16] = tested on: TE-8;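 further: growth inhibition of TE-8 cells, measured with a cell viability readout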
Description: SANGER: Inhibition of human TE-8 cell growth in a cell viability assay.

[17] = tested on: MFM-223
Description: SANGER: Inhibition of human MFM-223 cell growth in a cell viability assay.

[18] = tested on: SW 962;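 further: growth inhibition of human SW962 cells, read out by a cell viability assay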
Description: SANGER: Inhibition of human SW962 cell growth in a cell viability assay.

[19] = tested on: Calu-6;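 further: growth of human Calu-6 cells, read out by a cell viability assay, IC50 marking inhibition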
Description: SANGER: Inhibition of human Calu-6 cell growth in a cell viability assay.

[20] = tested on: DEL;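 further: growth inhibition of the human DEL cell line, read out with a cell viability assay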
Description: SANGER: Inhibition of human DEL cell growth in a cell viability assay.

[21] = tested on: OMC-1;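 further: growth inhibition of the OMC-1 cell line, measured by a cell viability assay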
Description: SANGER: Inhibition of human OMC-1 cell growth in a cell viability assay.

[22] = tested on: KNS-42;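 further: growth inhibition of KNS-42 cells, read out with a cell viability assay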
Description: SANGER: Inhibition of human KNS-42 cell growth in a cell viability assay.

[23] = tested on: HT-144
Description: SANGER: Inhibition of human HT-144 cell growth in a cell viability assay.

[24] = tested on: NOS-1;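 further: growth inhibition of the human NOS-1 cell line, read out with a cell viability assay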
Description: SANGER: Inhibition of human NOS-1 cell growth in a cell viability assay.

[25] = tested on: KP-N-YS;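 further: cell viability assay measuring inhibition of cell line growth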
Description: SANGER: Inhibition of human KP-N-YS cell growth in a cell viability assay.

[26] = tested on: HCC1187;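 further: growth inhibition of HCC1187 cells, read out with a cell viability assay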
Description: SANGER: Inhibition of human HCC1187 cell growth in a cell viability assay.

[27] = tested on: LAMA-84;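 further: growth inhibition of LAMA-84 cells, read out with a cell viability assay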
Description: SANGER: Inhibition of human LAMA-84 cell growth in a cell viability assay.

[28] = tested on: EW-18;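 further: growth inhibition of EW-18 cells, read out by a cell viability assay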
Description: SANGER: Inhibition of human EW-18 cell growth in a cell viability assay.

[29] = tested on: COLO-684
Description: SANGER: Inhibition of human COLO-684 cell growth in a cell viability assay.

[30] = tested on: JVM-2;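 further: growth inhibition of JVM-2 cells determined by a cell viability assay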
Description: SANGER: Inhibition of human JVM-2 cell growth in a cell viability assay.

[31] = tested on: NCI-H1155;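 further: cell growth inhibition measured by a viability assay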
Description: SANGER: Inhibition of human NCI-H1155 cell growth in a cell viability assay.

[32] = tested on: RPMI-8226
Description: SANGER: Inhibition of human RPMI-8226 cell growth in a cell viability assay.

[33] = tested on: GOTO;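 further: growth inhibition of GOTO cells, read out by a cell viability assay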
Description: SANGER: Inhibition of human GOTO cell growth in a cell viability assay.

[34] = tested on: EW-1;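 further: growth inhibition of the human EW-1 cell line, read out by a cell viability assay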
Description: SANGER: Inhibition of human EW-1 cell growth in a cell viability assay.

[35] = tested on: DB
Description: SANGER: Inhibition of human DB cell growth in a cell viability assay.

[36] = tested on: NEC8;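 further: growth inhibition of human NEC8 cells, read out by a cell viability assay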
Description: SANGER: Inhibition of human NEC8 cell growth in a cell viability assay.

[37] = tested on: KE-37;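 further: growth inhibition of KE-37 cells, read out with a cell viability assay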
Description: SANGER: Inhibition of human KE-37 cell growth in a cell viability assay.

[38] = tested on: CTB-1
Description: SANGER: Inhibition of human CTB-1 cell growth in a cell viability assay.

[39] = tested on: MEG-01;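 further: growth inhibition of MEG-01 cells, read out by a cell viability assay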
Description: SANGER: Inhibition of human MEG-01 cell growth in a cell viability assay.

[40] = tested on: NCI-H209;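 further: growth inhibition of human NCI-H209 cells, measured by a cell viability assay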
Description: SANGER: Inhibition of human NCI-H209 cell growth in a cell viability assay.

[41] = tested on: IST-SL1;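 further: growth inhibition of human IST-SL1 cells, read out with a cell viability assay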
Description: SANGER: Inhibition of human IST-SL1 cell growth in a cell viability assay.

[42] = tested on: CGTH-W-1;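 further: growth inhibition of human CGTH-W-1 cells measured by cell viability assay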
Description: SANGER: Inhibition of human CGTH-W-1 cell growth in a cell viability assay.

[43] = tested on: A704;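 further: growth inhibition of human A704 cells, read out with a cell viability assay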
Description: SANGER: Inhibition of human A704 cell growth in a cell viability assay.

[44] = tested on: CTV-1;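 further: growth inhibition of the cell line, read out with a cell viability assay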
Description: SANGER: Inhibition of human CTV-1 cell growth in a cell viability assay.

[45] = tested on: NCI-H1581;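 further: cell growth inhibition read out by a viability assay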
Description: SANGER: Inhibition of human NCI-H1581 cell growth in a cell viability assay.

[46] = tested on: CW-2;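 further: growth inhibition of CW-2 cells, read out by a cell viability assay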
Description: SANGER: Inhibition of human CW-2 cell growth in a cell viability assay.

[47] = tested on: MZ1-PC;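 further: cell viability assay measuring growth inhibition of human MZ1-PC cells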
Description: SANGER: Inhibition of human MZ1-PC cell growth in a cell viability assay.

[48] = tested on: SK-N-DZ;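 further: growth inhibition of the cancer cell line, read out through a viability assay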
Description: SANGER: Inhibition of human SK-N-DZ cell growth in a cell viability assay.

[49] = tested on: KARPAS-45;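 further: inhibition of cell line growth, read out through a viability assay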
Description: SANGER: Inhibition of human KARPAS-45 cell growth in a cell viability assay.

[50] = tested on: ES7;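 further: growth inhibition of cultured human ES7 cells, read out as cell viability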
Description: SANGER: Inhibition of human ES7 cell growth in a cell viability assay.

[51] = tested on: HDLM-2;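 further: cell viability assay measuring suppression of HDLM-2 proliferation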
Description: SANGER: Inhibition of human HDLM-2 cell growth in a cell viability assay.

[52] = tested on: SBC-1;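 further: cell viability assay measuring growth inhibition of the SBC-1 cell line, IC50 being the concentration that halves growth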
Description: SANGER: Inhibition of human SBC-1 cell growth in a cell viability assay.

[53] = tested on: LC-2-ad;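 further: growth inhibition of human LC-2-ad cells, read out with a cell viability assay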
Description: SANGER: Inhibition of human LC-2-ad cell growth in a cell viability assay.

[54] = tested on: RS4-11;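 further: growth inhibition of RS4-11 cells, read out by a cell viability assay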
Description: SANGER: Inhibition of human RS4-11 cell growth in a cell viability assay.

[55] = tested on: HD-MY-Z;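 further: growth inhibition of HD-MY-Z cells, read out with a cell viability assay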
Description: SANGER: Inhibition of human HD-MY-Z cell growth in a cell viability assay.

[56] = tested on: NMC-G1;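 further: growth inhibition of the NMC-G1 cell line, measured with a cell viability read-out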
Description: SANGER: Inhibition of human NMC-G1 cell growth in a cell viability assay.

[57] = tested on: CP66-MEL
Description: SANGER: Inhibition of human CP66-MEL cell growth in a cell viability assay.

[58] = tested on: Mo
Description: SANGER: Inhibition of human Mo-T cell growth in a cell viability assay.

[59] = tested on: EW-16
Description: SANGER: Inhibition of human EW-16 cell growth in a cell viability assay.

[60] = tested on: BE-13
Description: SANGER: Inhibition of human BE-13 cell growth in a cell viability assay.

[61] = tested on: BB49-HNC
Description: SANGER: Inhibition of human BB49-HNC cell growth in a cell viability assay.

[62] = tested on: D-502MG
Description: SANGER: Inhibition of human D-502MG cell growth in a cell viability assay.

[63] = tested on: NTERA-2-cl-D1
Description: SANGER: Inhibition of human NTERA-S-cl-D1 cell growth in a cell viability assay.

[64] = tested on: SK-LMS-1
Description: SANGER: Inhibition of human SK-LMS-1 cell growth in a cell viability assay.

[65] = tested on: GCIY
Description: SANGER: Inhibition of human GCIY cell growth in a cell viability assay.

[66] = tested on: EOL1
Description: SANGER: Inhibition of human EoL-1-cell cell growth in a cell viability assay.

Compound: NC(=O)c1ncn([C@@H]2O[C@H](COP(=O)(O)O)[C@@H](O)[C@H]2O)c1N
- IC50 [1]: > 2000 µM
- IC50 [2]: > 2000 µM
- IC50 [3]: 1290 µM
- IC50 [4]: 1160 µM
- IC50 [5]: > 2000 µM
- IC50 [6]: 847 µM
- IC50 [7]: 1770 µM
- IC50 [8]: 896 µM
- IC50 [9]: > 2000 µM
- IC50 [10]: > 2000 µM
- IC50 [11]: > 2000 µM
- IC50 [12]: > 2000 µM
- IC50 [13]: 830 µM
- IC50 [14]: > 2000 µM
- IC50 [15]: > 2000 µM
- IC50 [16]: 828 µM
- IC50 [17]: 1160 µM
- IC50 [18]: > 2000 µM
- IC50 [19]: 732 µM
- IC50 [20]: 232 µM
- IC50 [21]: > 2000 µM
- IC50 [22]: > 2000 µM
- IC50 [23]: > 2000 µM
- IC50 [24]: 524 µM
- IC50 [25]: > 2000 µM
- IC50 [26]: 1140 µM
- IC50 [27]: 435 µM
- IC50 [28]: > 2000 µM
- IC50 [29]: 894 µM
- IC50 [30]: > 2000 µM
- IC50 [31]: 800 µM
- IC50 [32]: 501 µM
- IC50 [33]: > 2000 µM
- IC50 [34]: 1870 µM
- IC50 [35]: 91.3 µM
- IC50 [36]: > 2000 µM
- IC50 [37]: 534 µM
- IC50 [38]: 646 µM
- IC50 [39]: 447 µM
- IC50 [40]: > 2000 µM
- IC50 [41]: > 2000 µM
- IC50 [42]: > 2000 µM
- IC50 [43]: > 2000 µM
- IC50 [44]: 266 µM
- IC50 [45]: > 2000 µM
- IC50 [46]: > 2000 µM
- IC50 [47]: > 2000 µM
- IC50 [48]: 1020 µM
- IC50 [49]: 1410 µM
- IC50 [50]: > 2000 µM
- IC50 [51]: 1780 µM
- IC50 [52]: 1400 µM
- IC50 [53]: 1170 µM
- IC50 [54]: 351 µM
- IC50 [55]: 1950 µM
- IC50 [56]: > 2000 µM
- IC50 [57]: > 2000 µM
- IC50 [58]: > 2000 µM
- IC50 [59]: > 2000 µM
- IC50 [60]: 365 µM
- IC50 [61]: > 2000 µM
- IC50 [62]: > 2000 µM
- IC50 [63]: > 2000 µM

Compound: O=c1cc(N2CCOCC2)oc2c(-c3cccc4c3sc3ccccc34)cccc12
- IC50 [1]: > 2 µM
- IC50 [2]: > 2 µM
- IC50 [3]: > 2 µM
- IC50 [5]: > 2 µM
- IC50 [6]: > 2 µM
- IC50 [7]: > 2 µM
- IC50 [8]: > 2 µM
- IC50 [10]: > 2 µM
- IC50 [11]: > 2 µM
- IC50 [12]: > 2 µM
- IC50 [13]: > 2 µM
- IC50 [14]: > 2 µM
- IC50 [15]: > 2 µM
- IC50 [16]: > 2 µM
- IC50 [17]: > 2 µM
- IC50 [18]: > 2 µM
- IC50 [19]: > 2 µM
- IC50 [20]: > 2 µM
- IC50 [21]: > 2 µM
- IC50 [22]: > 2 µM
- IC50 [23]: > 2 µM
- IC50 [24]: > 2 µM
- IC50 [64]: > 2 µM
- IC50 [25]: 1.14 µM
- IC50 [26]: > 2 µM
- IC50 [27]: 0.988 µM
- IC50 [29]: > 2 µM
- IC50 [31]: > 2 µM
- IC50 [32]: > 2 µM
- IC50 [65]: > 2 µM
- IC50 [33]: > 2 µM
- IC50 [34]: > 2 µM
- IC50 [35]: > 2 µM
- IC50 [36]: 1.55 µM
- IC50 [37]: > 2 µM
- IC50 [38]: 1.12 µM
- IC50 [39]: > 2 µM
- IC50 [41]: > 2 µM
- IC50 [42]: > 2 µM
- IC50 [43]: > 2 µM
- IC50 [45]: > 2 µM
- IC50 [46]: > 2 µM
- IC50 [47]: > 2 µM
- IC50 [48]: > 2 µM
- IC50 [50]: > 2 µM
- IC50 [51]: 0.323 µM
- IC50 [53]: > 2 µM
- IC50 [54]: > 2 µM
- IC50 [55]: > 2 µM
- IC50 [56]: > 2 µM
- IC50 [57]: > 2 µM
- IC50 [58]: > 2 µM
- IC50 [59]: > 2 µM
- IC50 [60]: > 2 µM
- IC50 [61]: > 2 µM
- IC50 [62]: > 2 µM
- IC50 [63]: > 2 µM

Compound: CCCS(=O)(=O)Nc1ccc(F)c(C(=O)c2c[nH]c3ncc(Cl)cc23)c1F [PLX-4720]
- IC50 [1]: 6.15 µM
- IC50 [2]: > 10 µM
- IC50 [3]: > 10 µM
- IC50 [66]: 0.142 µM
- IC50 [5]: > 10 µM
- IC50 [6]: > 10 µM
- IC50 [7]: 1.15 µM
- IC50 [8]: > 10 µM
- IC50 [10]: > 10 µM
- IC50 [11]: > 10 µM
- IC50 [12]: > 10 µM
- IC50 [13]: > 10 µM
- IC50 [14]: > 10 µM
- IC50 [15]: > 10 µM
- IC50 [16]: > 10 µM
- IC50 [17]: > 10 µM
- IC50 [18]: > 10 µM
- IC50 [19]: > 10 µM
- IC50 [20]: > 10 µM
- IC50 [21]: > 10 µM
- IC50 [22]: > 10 µM
- IC50 [23]: 0.363 µM
- IC50 [24]: > 10 µM
- IC50 [64]: > 10 µM
- IC50 [25]: > 10 µM
- IC50 [26]: > 10 µM
- IC50 [27]: > 10 µM
- IC50 [28]: > 10 µM
- IC50 [29]: > 10 µM
- IC50 [30]: > 10 µM
- IC50 [31]: > 10 µM
- IC50 [32]: > 10 µM
- IC50 [65]: > 10 µM
- IC50 [33]: > 10 µM
- IC50 [34]: > 10 µM
- IC50 [35]: > 10 µM
- IC50 [36]: > 10 µM
- IC50 [37]: > 10 µM
- IC50 [38]: 3.4 µM
- IC50 [39]: > 10 µM
- IC50 [40]: 1.61 µM
- IC50 [41]: > 10 µM
- IC50 [42]: > 10 µM
- IC50 [43]: > 10 µM
- IC50 [44]: > 10 µM
- IC50 [45]: > 10 µM
- IC50 [46]: > 10 µM
- IC50 [47]: > 10 µM
- IC50 [48]: > 10 µM
- IC50 [49]: 2.05 µM
- IC50 [50]: > 10 µM
- IC50 [51]: > 10 µM
- IC50 [52]: > 10 µM
- IC50 [53]: > 10 µM
- IC50 [54]: 9.6 µM
- IC50 [55]: > 10 µM
- IC50 [56]: > 10 µM
- IC50 [57]: 4.16 µM
- IC50 [58]: > 10 µM
- IC50 [59]: > 10 µM
- IC50 [60]: > 10 µM
- IC50 [61]: > 10 µM
- IC50 [62]: > 10 µM
- IC50 [63]: > 10 µM

Compound: CC[C@@]1(O)C(=O)OCc2c1cc1n(c2=O)Cc2cc3ccccc3nc2-1 [CAMPTOTHECIN]
- IC50 [1]: 0.000774 µM
- IC50 [2]: 0.0194 µM
- IC50 [3]: 0.0159 µM
- IC50 [66]: 0.000271 µM
- IC50 [4]: 0.00334 µM
- IC50 [5]: 0.00386 µM
- IC50 [6]: 0.00156 µM
- IC50 [7]: 0.00861 µM
- IC50 [8]: > 0.1 µM
- IC50 [9]: 0.00403 µM
- IC50 [10]: 0.0141 µM
- IC50 [11]: 0.0242 µM
- IC50 [12]: 0.0032 µM
- IC50 [13]: 0.00423 µM
- IC50 [16]: 0.00417 µM
- IC50 [17]: > 0.1 µM
- IC50 [18]: 0.0205 µM
- IC50 [20]: 0.000816 µM
- IC50 [21]: 0.0782 µM
- IC50 [22]: 0.0331 µM
- IC50 [23]: 0.0179 µM
- IC50 [24]: 0.0919 µM
- IC50 [25]: > 0.1 µM
- IC50 [27]: 0.00702 µM
- IC50 [29]: 0.0138 µM
- IC50 [30]: > 0.1 µM
- IC50 [31]: 0.00119 µM
- IC50 [32]: 0.0295 µM
- IC50 [65]: 0.0661 µM
- IC50 [33]: 0.000706 µM
- IC50 [34]: 0.00178 µM
- IC50 [35]: 0.00116 µM
- IC50 [36]: 0.00311 µM
- IC50 [37]: 0.00154 µM
- IC50 [38]: 0.000429 µM
- IC50 [39]: 0.0395 µM
- IC50 [40]: 4.84e-05 µM
- IC50 [41]: 0.0344 µM
- IC50 [42]: 0.00327 µM
- IC50 [43]: 0.0154 µM
- IC50 [44]: 0.000905 µM
- IC50 [45]: 0.0335 µM
- IC50 [46]: 0.0354 µM
- IC50 [47]: 0.0203 µM
- IC50 [48]: 0.0217 µM
- IC50 [50]: 2.54e-05 µM
- IC50 [52]: 0.0278 µM
- IC50 [53]: 0.00281 µM
- IC50 [54]: 0.000902 µM
- IC50 [55]: 0.00163 µM
- IC50 [56]: 0.0198 µM
- IC50 [59]: 0.000121 µM
- IC50 [60]: 0.00456 µM
- IC50 [62]: 0.0226 µM
- IC50 [63]: 0.000274 µM
